What was measured:
Head and Neck Cancer = assay: Clinical study of EPT with intralesional bleomycin for head and neck cancers; type: in vivo, humans; parameters: key to Response Status: Complete Response (CR): Disappearance of all evidence of tumor as determined by physical examination, and/or biopsy.; Partial Response (PR): 50% or greater reduction in tumor volume.; No Response (NR): less than 50% reduction in tumor volume
Description: All of the following patients were treated with bleomycin intratumoral injection and needle arrays of different diameters with six needles. The voltage was set to achieve a nominal electric field strength of 1300 V/cm (the needle array diameter was multiplied by 1300 to give the voltage the generator was set at). The pulse length was 100 μs.
The study was designed as a single center feasibility clinical study in which the efficacy of the EPT procedure in combination with intralesional bleomycin was compared to that for traditional surgery, radiation, and/or systemic chemotherapy. Approximately 50 study subjects were enrolled in the study. All study subjects were assessed prior to treatment by examination and biopsy. Postoperative assessment of study subjects was weekly for 4-6 weeks, and monthly thereafter for a total of 12 months. Approximately 8 to 12 weeks following therapy, a biopsy of the tumor site was performed. Use of CT or MRI scans was utilized in accordance to standard medical follow-up evaluation of HNC subjects.
Tumor evaluation includes measuring the tumor diameter (in centimeters) and estimating its volume (in cubic centimeters). Prior to intratumoral administration of bleomycin sulfate, the tumor site is anesthetized with 1% lidocaine (xylocaine) and 1:100,000 epinephrine. The concentration of bleomycin sulfate injected is 4 units per milliliter, up to a maximum dose of 5 units per tumor. If more than one tumor per subject is treated, a total of 20 units per subject should not be exceeded. The dose of bleomycin administered is to be 1 unit/cm^3 of calculated tumor volume. Approximately ten minutes subsequent to the injection of bleomycin sulfate, the applicator is placed on the tumor and electrical pulses initiated. Each application or an initiation of electrical pulses is referred to as a sequence. The use of EPT is not a contraindication to any subsequent palliative treatment required by the subject.
In this study, success was defined as significant tumor regression in a period of 16 weeks or less without major side effects seen with traditional therapy. There are three possible response outcomes:
Complete Response (CR): Disappearance of all evidence of tumor as determined by physical examination, and/or biopsy. • Partial Response (PR): 50% or greater reduction in tumor volume. • No Response (NR): less than 50% reduction in tumor volume.
If the tumor increases (25% tumor volume) in size, other therapy, if indicated, was instituted per subject's desire.

[1] = test system: Cutaneous and Subcutaneous Cancer; assay: Clinical studies using bleomycin sulfate and EPT, cutaneous and subcutaneous cancer; type: in vivo, humans
Panc-3 = assay: EPT of Panc-3 with neocarcinostatin, pre- and post-pulse injection; type: in vivo, nude mice
Source text: The Panc-3 and NSCLC models were utilized with the drug neocarcinostatin (NCS) following the same procedures as outlined above. […] It was believed that due to the low isoelectric point of NCS, electrostatic interaction prevented the drug from entering the tumor cell. Therefore, the experiment was repeated by pulsing first and injecting NCS post-pulse.

[2] = Adenocarcinoma, 2 patients, 2 lesions, IT 2 to 8 Units
[3] = Squamous Cell, 7 patients, 7 lesions, IT 1 to 16 Units
[4] = enrollment start 01/20/95, Basal Cell, 18 patients, 54 lesions, IT 0.5 to 3 Units
[5] = enrollment start 01/20/95, Kaposi Sarcoma, 1 patient, 4 lesions, IT 1 to 2 Units
[6] = enrollment start 01/20/95, Met. Melanoma, 10 patients, 84 lesions, IT 0.2 to 2 Units
[7] = enrollment start 01/20/95, Squamous Cell, 1 patient, 1 lesion, IT 1.5 Units
[8] = enrollment start 01/20/95, Summary, 30 patients, 146 lesions
[9] = enrollment start 02/18/94, Basal Cell, 2 patients, 6 lesions, IV 22 to 23 Units
[10] = enrollment start 02/18/94, Met. Breast Adenocarcinoma, 1 patient, 2 lesions, IV 17 Units
[11] = enrollment start 02/18/94, Met. Melanoma, 3 patients, 10 lesions, IV 19 to 23 Units
[12] = enrollment start 08/01/96, Basal Cell, 7 patients, 8 lesions, IT 0.8 to 0.64 Units
[13] = enrollment start 08/01/96, Summary, 7 patients, 8 lesions

bleomycin sulfate
Tumor Response CR % (Head and Neck Cancer; [2]): 0% | Tumor Response NR % (Head and Neck Cancer; [2]): 100% | Tumor Response PR % (Head and Neck Cancer; [2]): 100% | Tumor Response CR % (Head and Neck Cancer; [3]): 43% | Tumor Response NR % (Head and Neck Cancer; [3]): 29% | Tumor Response PR % (Head and Neck Cancer; [3]): 29% | Response Status (Head and Neck Cancer; Subject 1/J-S, first response (week 2)): PR (Partial Response (PR): 50% or greater reduction in tumor volume.) | Response Status (Head and Neck Cancer; Subject 1/J-S, second response (week 8)): CR | Time to Response (Week) (Head and Neck Cancer; Subject 1/J-S, to CR): 8 Week | Time to Response (Week) (Head and Neck Cancer; Subject 1/J-S, to PR): 2 Week | Response Status (Head and Neck Cancer; Subject 2/G-C): PR (Partial Response (PR): 50% or greater reduction in tumor volume.) | Time to Response (Week) (Head and Neck Cancer; Subject 2/G-C): 4 Week | Response Status (Head and Neck Cancer; Subject 3/L-O): CR | Time to Response (Week) (Head and Neck Cancer; Subject 3/L-O): 3 Week | Response Status (Head and Neck Cancer; Subject 4/G-R, first response (week 4)): PR (Partial Response (PR): 50% or greater reduction in tumor volume.) | Response Status (Head and Neck Cancer; Subject 4/G-R, second response (week 9)): CR | Time to Response (Week) (Head and Neck Cancer; Subject 4/G-R, to CR): 9 Week | Time to Response (Week) (Head and Neck Cancer; Subject 4/G-R, to PR): 4 Week | Response Status (Head and Neck Cancer; Subject 5/R-H, segmented treatment): NR** (No Response (NR): less than 50% reduction in tumor volume.) | Response Status (Head and Neck Cancer; Subject 6/C-B): PR (Partial Response (PR): 50% or greater reduction in tumor volume.) | Time to Response (Week) (Head and Neck Cancer; Subject 6/C-B): 2 Week | Response Status (Head and Neck Cancer; Subject 7/C-J, segmented treatment): NR** (No Response (NR): less than 50% reduction in tumor volume.) | Response Status (Head and Neck Cancer; Subject 8/L-J): PR (Partial Response (PR): 50% or greater reduction in tumor volume.) | Time to Response (Week) (Head and Neck Cancer; Subject 8/L-J): 4 Week | Time to Response (Week) (Head and Neck Cancer; Subject 9/J-T): 7 Week | Response Status (Head and Neck Cancer; Subject 9/J-T, segmented treatment): PR** (Partial Response (PR): 50% or greater reduction in tumor volume.) | subjects with a complete response (Head and Neck Cancer; Subject No. 1, 3 and 4, of 9 subjects): Three | subjects with a partial response (Head and Neck Cancer; Subject No. 2, 6, 8 and 9, of 9 subjects): four | subjects with no response (Head and Neck Cancer; Subject No. 5 and 7, of 9 subjects): two | Tumor Response CR % (Head and Neck Cancer; Summary, 9 patients, 9 lesions): 33% | Tumor Response NR % (Head and Neck Cancer; Summary, 9 patients, 9 lesions): 22% | Tumor Response PR % (Head and Neck Cancer; Summary, 9 patients, 9 lesions): 44% | subjects who died prior to reaching week 12 (Head and Neck Cancer; due to progressive disease or complications unrelated to study treatment (Subject No. 2, 5 and 7)): Three | Tumor Response CR % [1, 4]: 94% | Tumor Response NR % [1, 4]: 0% | Tumor Response PR % [1, 4]: 9% | Tumor Response CR % [1, 5]: 100% | Tumor Response NR % [1, 5]: 0% | Tumor Response PR % [1, 5]: 0% | Tumor Response CR % [1, 6]: 91% | Tumor Response NR % [1, 6]: 2% | Tumor Response PR % [1, 6]: 9% | Tumor Response CR % [1, 7]: 0% | Tumor Response NR % [1, 7]: 0% | Tumor Response PR % [1, 7]: 100% | Tumor Response CR % [1, 8]: 89% | Tumor Response NR % [1, 8]: 1% | Tumor Response PR % [1, 8]: 10% | Tumor Response CR % [1, 9]: 17% | Tumor Response NR % [1, 9]: 0% | Tumor Response PR % [1, 9]: 83% | Tumor Response CR % [1, 10]: 100% | Tumor Response NR % [1, 10]: 0% | Tumor Response PR % [1, 10]: 0% | Tumor Response CR % [1, 11]: 30% | Tumor Response NR % [1, 11]: 50% | Tumor Response PR % [1, 11]: 20% | Tumor Response CR % [1, 12]: 67% | Tumor Response NR % [1, 12]: 0% | Tumor Response PR % [1, 12]: 33% | Tumor Response CR % [1, 13]: 67% | Tumor Response NR % [1, 13]: 0% | Tumor Response PR % [1, 13]: 33%

B1: neocarcinostatin (protein, UniProt P0A3R9 35-147, looked up)
Neocarzinostatin: AAPTATVTPSSGLSDGTVVKVAGAGLQAGTAYDVGQCAWVDTGVLACNPADFSSVTADANGSASTSLTVRRSFEGFLFDGTRWGTVDCTTAACQVGLSDAAGNGPEGVAISFN
post-pulse versus pre-pulse administration (Panc-3; comparison of FIGS. 11a and 11b): more effective than pre-pulse administration | final vs initial tumor volume (Panc-3; post-pulse injection, day 13, mice ID 1, 2, 4 and 7 of 7, appeared to be due to edema): an increase in tumor volume was observed | tumor volume (Panc-3; post-pulse injection, day 23, separate group of 5 mice): all mice showed a marked reduction in tumor volume | reduction of tumor size (Panc-3; pre-pulse dosing): not effective in reducing tumor size at all
